Biological target: Acetylcholinesterase (AChE) (Electrophorus electricus, UniProt O42275)
Assay: Ellman colorimetric enzyme inhibition assay (commercial enzyme)
Assay type: biochemical

Chain of Acetylcholinesterase (AChE) (O42275 24-633): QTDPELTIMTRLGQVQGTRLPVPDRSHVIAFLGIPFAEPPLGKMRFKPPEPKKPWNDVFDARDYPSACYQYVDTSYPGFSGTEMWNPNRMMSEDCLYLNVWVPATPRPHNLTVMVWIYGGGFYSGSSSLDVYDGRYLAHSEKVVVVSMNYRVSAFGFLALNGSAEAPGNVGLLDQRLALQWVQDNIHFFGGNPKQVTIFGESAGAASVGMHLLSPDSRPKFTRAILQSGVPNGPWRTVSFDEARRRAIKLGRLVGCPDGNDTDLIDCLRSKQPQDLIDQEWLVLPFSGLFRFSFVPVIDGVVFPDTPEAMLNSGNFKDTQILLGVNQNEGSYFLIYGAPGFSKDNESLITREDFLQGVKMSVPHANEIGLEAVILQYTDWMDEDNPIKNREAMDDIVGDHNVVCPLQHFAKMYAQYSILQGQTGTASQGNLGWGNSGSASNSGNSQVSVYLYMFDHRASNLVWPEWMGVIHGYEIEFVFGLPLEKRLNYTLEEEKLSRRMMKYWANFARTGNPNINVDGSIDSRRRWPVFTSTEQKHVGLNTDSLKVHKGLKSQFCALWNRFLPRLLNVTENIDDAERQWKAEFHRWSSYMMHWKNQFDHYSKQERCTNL

Compound `O=C1CCCC1C(O)c1cccc([N+](=O)[O-])c1` (stereo not shown) [3NCP, 2-(hydroxy-(3-nitrophenyl)methyl)cyclopentanone] has an IC50 of 68.7 µM.

Reference: paper PMC7603158, “Attenuation of Spatial Memory in 5xFAD Mice by Halting Cholinesterases, Oxidative Stress and Neuroinflammation Using a Cyclopentanone Derivative” (Pharmaceuticals, 2020)
